Read-outs that look alike come from different tables or passages of the source.
Target: Nav 1.7 (Homo sapiens (Human), UniProt Q15858)
Test: in-vitro Nav 1.7 PX (IC50)
Format: cell-based
[1] = in-vitro Nav 1.7 PX data (PatchXpress)

Nav 1.7, sequence (Q15858 whole entry): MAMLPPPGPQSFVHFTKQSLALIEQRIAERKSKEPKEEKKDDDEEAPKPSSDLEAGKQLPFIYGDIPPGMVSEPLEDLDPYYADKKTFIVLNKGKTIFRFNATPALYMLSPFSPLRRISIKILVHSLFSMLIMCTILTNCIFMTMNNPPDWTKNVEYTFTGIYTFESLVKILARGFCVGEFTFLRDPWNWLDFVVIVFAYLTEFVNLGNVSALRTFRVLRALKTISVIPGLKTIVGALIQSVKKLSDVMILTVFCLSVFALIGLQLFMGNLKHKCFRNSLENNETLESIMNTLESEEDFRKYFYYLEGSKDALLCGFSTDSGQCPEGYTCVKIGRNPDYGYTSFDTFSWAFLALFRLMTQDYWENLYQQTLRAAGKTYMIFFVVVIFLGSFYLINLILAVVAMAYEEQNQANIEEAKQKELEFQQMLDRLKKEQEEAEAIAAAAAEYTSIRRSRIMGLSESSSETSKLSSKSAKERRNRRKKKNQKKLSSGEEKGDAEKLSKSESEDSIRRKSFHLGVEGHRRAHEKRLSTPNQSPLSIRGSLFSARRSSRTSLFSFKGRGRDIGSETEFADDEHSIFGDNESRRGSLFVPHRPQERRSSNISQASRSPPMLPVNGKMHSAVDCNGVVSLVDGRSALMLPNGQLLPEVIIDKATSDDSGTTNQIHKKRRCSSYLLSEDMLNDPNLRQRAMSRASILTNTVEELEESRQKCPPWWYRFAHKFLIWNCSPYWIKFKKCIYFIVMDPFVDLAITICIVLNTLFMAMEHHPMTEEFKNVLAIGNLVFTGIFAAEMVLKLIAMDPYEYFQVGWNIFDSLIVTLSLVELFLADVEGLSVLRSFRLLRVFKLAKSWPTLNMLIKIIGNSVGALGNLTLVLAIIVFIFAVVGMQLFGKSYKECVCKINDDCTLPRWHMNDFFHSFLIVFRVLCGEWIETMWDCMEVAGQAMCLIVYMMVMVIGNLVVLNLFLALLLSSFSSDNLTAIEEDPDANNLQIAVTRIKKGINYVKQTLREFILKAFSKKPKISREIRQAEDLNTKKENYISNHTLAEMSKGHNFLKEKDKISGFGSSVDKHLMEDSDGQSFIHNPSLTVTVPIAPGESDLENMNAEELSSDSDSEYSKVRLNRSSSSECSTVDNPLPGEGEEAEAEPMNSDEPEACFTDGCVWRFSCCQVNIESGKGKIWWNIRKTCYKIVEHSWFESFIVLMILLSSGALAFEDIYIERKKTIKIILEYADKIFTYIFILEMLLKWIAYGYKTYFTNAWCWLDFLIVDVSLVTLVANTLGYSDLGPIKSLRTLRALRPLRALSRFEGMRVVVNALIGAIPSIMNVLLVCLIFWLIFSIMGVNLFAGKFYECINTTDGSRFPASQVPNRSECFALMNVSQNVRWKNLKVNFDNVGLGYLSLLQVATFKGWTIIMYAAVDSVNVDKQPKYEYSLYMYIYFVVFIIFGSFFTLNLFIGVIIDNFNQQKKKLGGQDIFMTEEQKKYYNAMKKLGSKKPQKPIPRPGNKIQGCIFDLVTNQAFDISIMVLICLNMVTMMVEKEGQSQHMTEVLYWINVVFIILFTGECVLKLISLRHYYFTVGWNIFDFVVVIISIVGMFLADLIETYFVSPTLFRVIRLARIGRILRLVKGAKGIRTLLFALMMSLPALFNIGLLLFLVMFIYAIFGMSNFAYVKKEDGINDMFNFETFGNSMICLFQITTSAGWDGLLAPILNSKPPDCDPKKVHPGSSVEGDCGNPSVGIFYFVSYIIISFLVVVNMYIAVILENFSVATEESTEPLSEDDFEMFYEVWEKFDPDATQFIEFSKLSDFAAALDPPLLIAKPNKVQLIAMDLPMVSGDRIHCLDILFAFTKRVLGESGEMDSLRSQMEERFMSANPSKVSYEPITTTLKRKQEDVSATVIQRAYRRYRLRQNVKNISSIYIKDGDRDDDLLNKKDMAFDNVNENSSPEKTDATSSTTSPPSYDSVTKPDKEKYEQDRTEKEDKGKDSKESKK

SMILES	IC50 [nM]	IC50 (in-vitro Nav 1.7 PX data) [nM]	further results
COc1cc(-c2ccc(F)c(Cl)c2)ccc1-n1c(=O)cnc2cc(S(=O)(=O)Nc3ccon3)ccc21 [Example 1198, 1-(3′-chloro-4′-fluoro-3-methoxy-4-biphenylyl)-N-3-isoxazolyl-2-oxo-1,2-dihydro-6-quinoxalinesulfonamide]	39		
COc1cc(-c2cc(C)cc(Cl)c2)ccc1-n1c(=O)ccc2cc(S(=O)(=O)Nc3ccon3)ccc21 (atropisomer, axis not shown; (M)) [Example 586, (M)-1-(3′-chloro-3-methoxy-5′-methyl-4-biphenylyl)-N-3-isoxazolyl-2-oxo-1,2-dihydro-6-quinolinesulfonamide]	> 1000		
COc1cc(-c2cccc(C(F)(F)F)n2)c(F)cc1-n1c(=O)ccc2cc(S(=O)(=O)Nc3ccon3)ccc21 [Example 794, 1-(5-fluoro-2-methoxy-4-(6-(trifluoromethyl)-2-pyridinyl)phenyl)-N-3-isoxazolyl-2-oxo-1,2-dihydro-6-quinolinesulfonamide]		96	
COc1cc(-c2cc(C)cc(F)c2)ccc1-n1c(=O)ccc2cc(S(=O)(=O)Nc3ccon3)ccc21 [Example 1015, 1-(3′-fluoro-3-methoxy-5′-methyl-4-biphenylyl)-N-3-isoxazolyl-2-oxo-1,2-dihydro-6-quinolinesulfonamide]		12	
COc1ccc(-c2cncc(Cl)c2)cc1-n1c(=O)ccc2cc(S(=O)(=O)Nc3ccon3)ccc21 [Example 494, 1-(5-(5-chloro-3-pyridinyl)-2-methoxyphenyl)-N-3-isoxazolyl-2-oxo-1,2-dihydro-6-quinolinesulfonamide]	682		
COc1cc(-c2ccc(F)cc2)c(F)cc1-n1c(=O)ccc2cc(S(=O)(=O)Nc3ncc(F)cn3)ccc21 [Example 769, 1-(2,4′-difluoro-5-methoxy-4-biphenylyl)-N-(5-fluoro-2-pyrimidinyl)-2-oxo-1,2-dihydro-6-quinolinesulfonamide]		100	
COc1ccc(-c2cccc(F)c2)cc1-n1c(=O)ccc2cc(S(=O)(=O)Nc3ncccn3)ccc21 (atropisomer, axis not shown; (P)) [Example 606, (P)-1-(3′-fluoro-4-methoxy-3-biphenylyl)-2-oxo-N-2-pyrimidinyl-1,2-dihydro-6-quinolinesulfonamide]		159	
O=c1ccc2cc(S(=O)(=O)Nc3ccon3)ccc2n1-c1cc(F)c(-c2cc(F)cc(F)c2)cc1O [Example 624, N-(isoxazol-3-yl)-2-oxo-1-(2,3′,5′-trifluoro-5-hydroxy-[1,1′-biphenyl]-4-yl)-1,2-dihydroquinoline-6-sulfonamide]			IC50 [1]: 1730 nM
COc1cc(-c2cc(C)c(F)cc2F)ccc1-n1c(=O)ccc2cc(S(=O)(=O)Nc3ccon3)ccc21 [Example 1065, 1-(2′,4′-difluoro-3-methoxy-5′-methyl-4-biphenylyl)-N-3-isoxazolyl-2-oxo-1,2-dihydro-6-quinolinesulfonamide]			IC50 [1]: 9 nM
COc1cc(C#CC2(F)CCCC2)c(F)cc1-n1c(=O)ccc2cc(S(=O)(=O)Nc3cccnn3)ccc21 (atropisomer, axis not shown; (P)) [Example 1238, (P)-1-(5-fluoro-4-((1-fluorocyclopentyl)ethynyl)-2-methoxyphenyl)-2-oxo-N-3-pyridazinyl-1,2-dihydro-6-quinolinesulfonamide]	94		
COc1cc(-c2cccc(C(F)(F)F)c2)ccc1-n1c(=O)ccc2cc(S(=O)(=O)Nc3cnccn3)ccc21 [Example 915, 1-(3-methoxy-3′-(trifluoromethyl)-4-biphenylyl)-2-oxo-N-2-pyrazinyl-1,2-dihydro-6-quinolinesulfonamide]		31	
CCOc1cccc(-c2ccc(-n3c(=O)ccc4cc(S(=O)(=O)Nc5ccon5)ccc43)c(OC)c2)c1 [631/779, 1-(3′-ethoxy-3-methoxy-4-biphenylyl)-N-3-isoxazolyl-2-oxo-1,2-dihydro-6-quinolinesulfonamide]		24	
COc1cc(-c2cccc(F)c2)c(Cl)cc1-n1c(=O)cc(C)c2cc(S(=O)(=O)Nc3ccon3)ccc21 [Example 348, P-1-(2-chloro-3′-fluoro-5-methoxy-[1,1′-biphenyl]-4-yl)-N-(isoxazol-3-yl)-4-methyl-2-oxo-1,2-dihydroquinoline-6-sulfonamide]	159		
COc1cc(-c2ccnc(C(F)(F)F)c2)c(F)cc1-n1c(=O)ccc2cc(S(=O)(=O)Nc3ccon3)ccc21 [Example 762, 1-(5-fluoro-2-methoxy-4-(2-(trifluoromethyl)-4-pyridinyl)phenyl)-N-3-isoxazolyl-2-oxo-1,2-dihydro-6-quinolinesulfonamide]		41	
COc1cc(-c2cccc(OC(F)F)c2)ccc1-n1c(=O)ccc2cc(S(=O)(=O)Nc3ccon3)ccc21 [Example 786, 1-(3′-(difluoromethoxy)-3-methoxy-4-biphenylyl)-N-3-isoxazolyl-2-oxo-1,2-dihydro-6-quinolinesulfonamide]		48	
COc1cc(C[C@@H]2C[C@@H]3CC[C@H]2O3)c(F)cc1-n1c(=O)ccc2cc(S(=O)(=O)Nc3ccon3)ccc21 [Example 1087, 1-(5-fluoro-2-methoxy-4-((1R,2R,4S)-7-oxabicyclo[2.2.1]hept-2-ylmethyl)phenyl)-N-3-isoxazolyl-2-oxo-1,2-dihydro-6-quinolinesulfonamide, 1-(5-fluoro-2-methoxy-4-((1S,2S,4R)-7-oxabicyclo[2.2.1]hept-2-ylmethyl)phenyl)-N-3-isoxazolyl-2-oxo-1,2-dihydro-6-quinolinesulfonamide]		1730	
COc1cc(-c2cncc(Cl)c2)c(F)cc1-n1c(=O)ccc2cc(S(=O)(=O)Nc3ccon3)ccc21 (atropisomer, axis not shown; (P)) [Example 408, (P)-1-(4-(5-chloro-3-pyridinyl)-5-fluoro-2-methoxyphenyl)-N-3-isoxazolyl-2-oxo-1,2-dihydro-6-quinolinesulfonamide]			IC50 (in-vitro PatchXpress (PX)): 8040 nM
COc1cc(Br)c(F)cc1-n1c(=O)ccc2cc(S(=O)(=O)Nc3cc(OCC4CCC4)ncn3)ccc21 (atropisomer, axis not shown; (P)) [Example 1184, (P)-1-(4-bromo-5-fluoro-2-methoxyphenyl)-N-(6-(cyclobutylmethoxy)-4-pyrimidinyl)-2-oxo-1,2-dihydro-6-quinolinesulfonamide]	3360		
COc1nc(OCC2(C)CC2)c(Cl)cc1-n1c(=O)ccc2cc(S(=O)(=O)Nc3ccon3)ccc21 [Example 822, 1-(5-chloro-2-methoxy-6-((1-methylcyclopropyl)methoxy)-3-pyridinyl)-N-3-isoxazolyl-2-oxo-1,2-dihydro-6-quinolinesulfonamide]		460	
COc1cc([C@@H]2CCOC(C)(C)C2)c(F)cc1-n1c(=O)ccc2cc(S(=O)(=O)Nc3ccon3)ccc21 [Example 1096, 1-(4-((4R)-2,2-dimethyltetrahydro-2H-pyran-4-yl)-5-fluoro-2-methoxyphenyl)-N-3-isoxazolyl-2-oxo-1,2-dihydro-6-quinolinesulfonamide, 1-(4-((4S)-2,2-dimethyltetrahydro-2H-pyran-4-yl)-5-fluoro-2-methoxyphenyl)-N-3-isoxazolyl-2-oxo-1,2-dihydro-6-quinolinesulfonamide]		1120	
COc1cc(-c2ccc(-n3c(=O)ccc4cc(S(=O)(=O)Nc5ncco5)ccc43)c(OC)c2)ccc1Cl [Example 1039, 1-(4′-chloro-3,3′-dimethoxy-4-biphenylyl)-N-1,3-oxazol-2-yl-2-oxo-1,2-dihydro-6-quinolinesulfonamide]			IC50 [1]: 149 nM
COc1cc(-c2cccc(F)c2)c(Cl)cc1-n1c(=O)ccc2cc(S(=O)(=O)Nc3ccncn3)ccc21 (atropisomer, axis not shown; (M)) [Example 466, (M)-1-(2-chloro-3′-fluoro-5-methoxy-[1,1′-biphenyl]-4-yl)-2-oxo-N-(pyrimidin-4-yl)-1,2-dihydroquinoline-6-sulfonamide]	4320		
COc1nc(-c2cc(F)cc(Cl)c2)c(Cl)cc1-n1c(=O)ccc2cc(S(=O)(=O)Nc3ccon3)ccc21 [Example 1071, 1-(5-chloro-6-(3-chloro-5-fluorophenyl)-2-methoxy-3-pyridinyl)-N-3-isoxazolyl-2-oxo-1,2-dihydro-6-quinolinesulfonamide]		348	
COc1cc(C[C@H]2CCOC2)c(F)cc1-n1c(=O)ccc2cc(S(=O)(=O)Nc3ccon3)ccc21 (atropisomer, axis not shown; (P)) [Example 1234, (P)-1-(5-fluoro-2-methoxy-4-((3S)-tetrahydro-3-furanylmethyl)phenyl)-N-3-isoxazolyl-2-oxo-1,2-dihydro-6-quinolinesulfonamide]	1140		
COc1cc(-c2ccc(Cl)c(C)c2)c(C)cc1-n1c(=O)ccc2cc(S(=O)(=O)Nc3ccon3)ccc21 (atropisomer, axis not shown; (P)) [Example 421, (P)-1-(4′-chloro-5-methoxy-2,3′-dimethyl-4-biphenylyl)-N-3-isoxazolyl-2-oxo-1,2-dihydro-6-quinolinesulfonamide]	16		
COc1cc(-c2cccc(OC(F)F)c2)c(F)cc1-n1c(=O)cnc2cc(S(=O)(=O)Nc3ccon3)ccc21 [Example 1193, 1-(3′-(difluoromethoxy)-2-fluoro-5-methoxy-4-biphenylyl)-N-3-isoxazolyl-2-oxo-1,2-dihydro-6-quinoxalinesulfonamide]	93		
COc1cc(C#CC(F)(F)F)c(F)cc1-n1c(=O)ccc2cc(S(=O)(=O)Nc3ccon3)ccc21 [Example 644, 1-(5-fluoro-2-methoxy-4-(3,3,3-trifluoro-1-PROPYN-1-yl)phenyl)-N-3-isoxazolyl-2-oxo-1,2-dihydro-6-quinolinesulfonamide]		387	
COc1cc(-c2cc(F)cc(Cl)c2)ccc1-n1c(=O)ccc2cc(S(=O)(=O)Nc3ccon3)ccc21 (atropisomer, axis not shown; (M)) [Example 429, (M)-1-(3′-chloro-5′-fluoro-3-methoxy-4-biphenylyl)-N-3-isoxazolyl-2-oxo-1,2-dihydro-6-quinolinesulfonamide]	1590		
COc1ccc(-c2ccc(F)c(C)c2)cc1-n1c(=O)ccc2cc(S(=O)(=O)Nc3ccon3)ccc21 [Example 878, 1-(4′-fluoro-4-methoxy-3′-methyl-3-biphenylyl)-N-3-isoxazolyl-2-oxo-1,2-dihydro-6-quinolinesulfonamide]		21	

— patent publication US9212182B2, “Bicyclic sulfonamide compounds as sodium channel inhibitors” (AMGEN INC., priority 2013, dated 2015)
